The values below come from patent publication EP1289507B1, “USE OF AN ALDOSTERONE ANTAGONIST FOR THE TREATMENT OR PROPHYLAXIS OF ALDOSTERONE-MEDIATED PATHOGENIC EFFECTS” (priority 2000, dated 2001).

Values joined by “and” are separate entries in the source; they are usually repeats but may differ in a detail not shown here. Equal values may be shown once. “Also recorded” adds a separate entry of the source. Read-outs that look alike come from different tables or passages of the source. Bounds are passed on as bounds.

The test system of data set [1] is Stroke Prone Spontaneously Hypertensive Rat (SHR-SP). Nature of the data set: Blood pressure in stroke prone spontaneously hypertensive rat (SHR-SP), tail cuff plethysmography. The data set is classed as in vivo. On the procedure: Methods: SHR-SP were bred in the animal facilities of New York Medical College and maintained on normal rat chow and non-saline drinking water (i.e., tap water). […] Indirect measurements of systolic blood pressure were assessed by tail cuff plethysmography.

Data set [2] has as its system aldosterone/salt uninephrectomized rats. In words: Myocardial injury in aldosterone/salt uninephrectomized rats. It counts as in vivo, Sprague Dawley rats. The following applies: eplerenone 100 mg/k/d in chow; aldosterone 0.75ug/hr, 1% NaCl. On the procedure: Sprague Dawley rats (250 g) were uninephrectomized and provided with 1% NaCl-solution as the only source of water. The rats were then implanted with Alzet mini pump that subcutaneously delivered either aldosterone (0.75ug/hr) or vehicle. […] Blood pressure was measured by radio telemetry units implanted in abdominal aorta. Rats were sacrificed for examination of the hearts.

In data set [3] the test system is saline-drinking SHRSP. Nature of the data set: Stroke and cerebrovascular damage in saline-drinking SHRSP. It counts as in vivo, rats. The following applies: 100 mg/kg/day. The text has this:
Fifteen male, 9 weeks of age, saline-drinking SHRSP were included in the experiment.

Data set [4] in a line: Single dose tolerability and pharmacokinetic trials, Japan and Ex-Japan. The data set is classed as in vivo, Japanese (Japan) and European (Ex-Japan) subjects. The following applies: for CL/F: single dose, least squares mean. On the procedure: A total of 76 European subjects and 38 Japanese subjects participated in the single and multiple dose tolerability and food effect trials. Three of the studies were Ex-Japan studies and included doses ranging from 10 mg to 1000 mg. The other two studies were conducted in Japan and included doses ranging from 50 mg to 600 mg.
(§1) The Ex-Japan trials included (i) a single dose tolerability trial, and (ii) a multiple dose tolerability trial, and (iii) a food effect study.
(§2) Both single dose and multiple dose tolerability trials were conducted in Japan utilizing healthy male Japanese subjects. […] Six subjects who received the 100 mg dose also participated in the food effect treatment arm of the single dose tolerability trial.
Combining single dose fasting pharmacokinetic data from all five studies, an analysis of variance with factors for country (Japan, Ex-Japan), study nested within country, and dose were performed on the dose-normalized Cmax and AUC values to assess the effect of country (population). Dose normalization was done to the lowest dose (10 mg for single dose, 100 mg for multiple dose). In the absence of intravenous data, the distribution volume (V/F) and clearance (CL/F) parameters are represented as the apparent values and are normalized to 70 kg of body weight. There were no statistically significant differences between the Japan and Ex-Japan trials in any of the pharmacokinetic parameters analyzed.
No statistically significant differences were noted between the Japan and ex-Japan population for any of the derived parameters evaluated.
Each panel consisted of six subjects who were given eplerenone and two subjects who were given placebo.

Data set [5] is described as follows: Multiple dose tolerability and pharmacokinetic trials, Japan and Ex-Japan. It counts as in vivo, Japanese (Japan) and European (Ex-Japan) subjects. The settings on record: Japanese male subjects, 400 mg daily for seven days, six subjects. On the procedure: as §1, §2
No formal statistical analyses were performed and the actual derived data is presented for comparison purposes only.
A multiple-dose safety and pharmacokinetic study among Japanese subjects was conducted in Japan. This was a single-blind, randomized, placebo-controlled study. […] Serial blood and urine samples were collected throughout the study for measurement of pharmacokinetic, renal, and hormonal parameters after a single dose on Day 1 and after seven days of dosing.

The nature of data set [6]: Form H content of dried solids by X-ray powder diffraction (XPRD). The data set is classed as physicochemical.
Data set [7] concerns L-NAME/ANG-II-induced renal injury in rats. The following applies: cited from earlier work.

For `COC(=O)[C@@H]1CC2=CC(=O)CC[C@]2(C)[C@@]23O[C@@H]2C[C@@]2(C)[C@@H](CC[C@@]24CCC(=O)O4)[C@H]13` [Eplerenone, Pregn-4-ene-7,21-dicarboxylic acid, 9,11-epoxy-17-hydroxy-3-oxo-, γ-lactone, methyl ester, (7α, 11α, 17β)-], the systolic blood pressure in data set [1] (Week 13 (initiation), 100 mg/kg/day p.o. BID) amounted to 201.4 ± 1.6 mmHg; in data set [1] (Week 14, 100 mg/kg/day p.o. BID), 202.8 ± 1.8 mmHg; in data set [1] (Week 15, 100 mg/kg/day p.o. BID), 208.0 ± 4.2 mmHg; in data set [1] (Week 16, 100 mg/kg/day p.o. BID) it was 203.1 ± 6.2 mmHg. In addition, the histopathologic myocardial damage result in data set [2] is listed as “prevents the histopathologic damage; also recorded: prevents the aldosterone plus high sodium myocardial damage”. For the same compound, in data set [3], the proteinuria is on record as 38 ± 18 mg/day. Moreover, the “severe hypertension (SBP)” value in data set [3] (Figure A-12) was 237 ± 3 mmHg. Moreover, the signs of stroke result in data set [3] (n=7) is “no signs of stroke up to 18.5 weeks of age”. Besides, the adverse events entry is on record as “no adverse events were reported” in data set [4] (healthy Japanese male subjects, single doses 50-600 mg) and “mild fatigue on Day 2” in data set [5]. Further, the CL/F in data set [4] (human, blood, po, Ex-Japan, read-out: CL/F (converted)) was 228 mL/min; in data set [4] (human, blood, po, Japan, read-out: CL/F (converted)) it was 230 mL/min; in data set [4] (Ex-Japan), 14.44 L/hr/70 kg; in data set [4] (Japan) it was 13.52 L/hr/70 kg. Further, the “Weight Percent Form H (XPRD)” value is <3% Weight Percent and 5 Weight Percent in data set [6] (cooling rate (0) 1.5°C/min, cooling endpoint (0) 25°C, impurity level (0) 100.8% purity starting material (footnote as printed), replicate runs); 9 Weight Percent in data set [6] (cooling rate (+) 3°C/min, cooling endpoint (-) 5°C, impurity level (+) 89.3% purity starting material). Moreover, in data set [7], the L-NAME/ANG-II-induced renal injury result is “prevents L-NAME/ANG-II-induced renal injury”.
